# Read-outs that look alike come from different tables or passages of the source.
# How the values were obtained:
# [1] = system: CO (prostaglandin F2a or TxB2) in dog whole blood; test: Procedure IV: ex vivo eicosanoid synthesis in dog whole blood after oral dosing, CO; conditions: Canis lupus familiaris, read-out: % INHIB/HOURS CO (Proc. IV); for inhibition at 1 mg/kg: 1 MPK; for inhibition at 5 mg/kg: 5 MPK
# Method: (§1) Ex Vivo eicosanoid synthesis in dog whole blood. Adult beagle or mongrel dogs (10-15 kg) of either sex were fasted overnight prior to the initiation of each experiment. The forelimb was clipped and swabbed with an alcohol prep (70% isopropanol). Blood was drawn by venipuncture into syringes containing lithium heparin (Starstead, Newton N.C.) immediately prior to administration of compound or vehicle and then at various intervals following dosing. The test compound was administered orally as a suspension in 0.5% methocel. At various times after dosing, blood samples were drawn and placed on an electric rocker platform to assure complete and continuous mixing. White blood cell (wbc) counts were performed using a Sysmex hematology analyzer. This was done in an effort to normalize the number of leukocytes to be stimulated with calcium ionophore. A 1.0 mL aliquot of whole blood was challenged with 50 μL of a 2.6×10^-5 M solution of calcium ionophore A23187 (Calbiochem, La Jolla, Calif.) prepared in DMSO and diluted in HBSS. After a 15 minute incubation at 37° C., the reaction was stopped by placing the samples in an ice bath (4° C.) for 5 minutes and then centrifuged at 11,000×g for 5 minutes to separate the plasma fraction from blood cells. The plasma fraction was removed, diluted in an appropriate buffer, and analyzed for the presence of LTB4 and prostaglandin F2a or TxB2 by standard RIA techniques.
# (§2) In the following tables, the superscripts indicate the number of experiments and, unless otherwise stated, the dose at which % inhibition is reported is 3 MPK.
# [2] = system: 5-LO (LTB4) in dog whole blood; test: Procedure IV: ex vivo eicosanoid synthesis in dog whole blood after oral dosing, 5-LO; conditions: Canis lupus familiaris, read-out: % INHIB/HOURS 5-LO (Proc. IV); for inhibition at 1 mg/kg: 1 MPK; for inhibition at 5 mg/kg: 5 MPK
# Method: as §1, §2
compound,measurement,setting,value
COc1ccc(-n2nc(COC(=O)N(O)C(C)C)c(Br)c2-c2ccc(Cl)cc2)cc1 [1-F],inhibition at 7.5 mg/kg,"[1]; 7.5 MPK, 6 hours",82%
same,inhibition at 7.5 mg/kg,"[2]; 7.5 MPK, 6 hours",38%
COc1ccc(-n2nc(COC(=O)N(C)O)cc2-c2ccc(C)cc2)cc1 [1-K],inhibition at 3 mg/kg,"[1]; 3 MPK, 2 hours",95%
same,inhibition at 3 mg/kg,"[2]; 3 MPK, 2 hours",21%
COc1ccc(-n2nc(COC(=O)N(O)C(C)C)cc2-c2ccc(C)cc2)cc1 [1-L],inhibition at 1 mg/kg,[1]; 2 hours,68%
same,inhibition at 1 mg/kg,[2]; 2 hours,22%
COc1ccc(-n2nc(COC(=O)NO)c(Cl)c2-c2ccc(C)cc2)cc1 [1-P],inhibition at 5 mg/kg,[1]; 2 hours,72%
same,inhibition at 5 mg/kg,[2]; 2 hours,27%
COc1ccc(-n2nc(COC(=O)N(O)C(C)C)c(Cl)c2-c2ccc(C)cc2)cc1 [1-R],inhibition at 1 mg/kg,[1]; 2 hours,7%
same,inhibition at 1 mg/kg,[2]; 2 hours,6%
COc1ccc(-n2nc(CCOC(=O)N(C)O)cc2-c2ccc(Cl)cc2)cc1 [2-A],inhibition at 2.5 mg/kg,"[1]; 2.5 MPK, 6 hours",32%
same,inhibition at 2.5 mg/kg,"[2]; 2.5 MPK, 6 hours",0%
COc1ccc(-n2nc(CCOC(=O)N(O)C(C)C)cc2-c2ccc(Cl)cc2)cc1 [2-B],inhibition at 5 mg/kg,[1]; 2 hours,33%
same,inhibition at 5 mg/kg,[2]; 2 hours,0%
COc1ccc(-n2nc(CCOC(=O)N(O)C(C)C)c(Cl)c2-c2ccc(Cl)cc2)cc1 [2-D],inhibition at 5 mg/kg,[1]; 2 hours,41%
same,inhibition at 5 mg/kg,[2]; 2 hours,32%
COc1ccc(-n2nc(CCOC(=O)N(C)O)c(Br)c2-c2ccc(Cl)cc2)cc1 [2-E],inhibition at 5 mg/kg,[1]; 6 hours,62%
same,inhibition at 5 mg/kg,[2]; 6 hours,57%
COc1ccc(-n2nc(CCOC(=O)N(O)C(C)C)c(Br)c2-c2ccc(Cl)cc2)cc1 [2-F],inhibition at 5 mg/kg,[1]; 24 hours,42%
same,inhibition at 5 mg/kg,[2]; 24 hours,11%
COc1ccc(-n2nc(CCOC(=O)N(C)O)c(Cl)c2-c2ccc(C)cc2)cc1 [2-I],inhibition at 5 mg/kg,[1]; 6 hours,0%
same,inhibition at 5 mg/kg,[2]; 6 hours,0%
COc1ccc(-n2nc(CCOC(=O)N(O)C(C)C)c(Cl)c2-c2ccc(C)cc2)cc1 [2-J],inhibition at 5 mg/kg,[1]; 4 hours,73%
same,inhibition at 5 mg/kg,[2]; 4 hours,26%
COc1ccc(-n2nc(CCCOC(=O)N(C)O)cc2-c2ccc(Cl)cc2)cc1 [3-B],inhibition at 5 mg/kg,[1]; 6 hours,94%
same,inhibition at 5 mg/kg,[2]; 6 hours,11%
COc1ccc(-n2nc(CCCOC(=O)N(C)O)c(Cl)c2-c2ccc(Cl)cc2)cc1 [3-D],inhibition at 5 mg/kg,[1]; 2 hours,93%
same,inhibition at 5 mg/kg,[2]; 2 hours,1%
COc1ccc(-n2nc(CCCOC(=O)N(O)C(C)C)c(Cl)c2-c2ccc(Cl)cc2)cc1 [3-E],inhibition at 5 mg/kg,[1]; 2 hours,76%
same,inhibition at 5 mg/kg,[2]; 24 hours,22%
COc1ccc(-n2nc(CCCOC(=O)N(C)O)c(Br)c2-c2ccc(Cl)cc2)cc1 [3-F],inhibition at 5 mg/kg,[1]; 2 hours,45%
same,inhibition at 5 mg/kg,[2]; 2 hours,8%

# — patent publication US5387602A, “1.5-diphenyl-3-(N-hydroxycarbamoyloxyalkyl)pyrazoles” (Ortho Pharmaceutical Corporation, priority 1993, dated 1995)
